The target of test [1] is T1, hTA1 (Homo sapiens, UniProt Q96RJ0).
T1 construct: expressed in transfected cells; host or cells: HEK293T
T1 sequence (Q96RJ0 1-339): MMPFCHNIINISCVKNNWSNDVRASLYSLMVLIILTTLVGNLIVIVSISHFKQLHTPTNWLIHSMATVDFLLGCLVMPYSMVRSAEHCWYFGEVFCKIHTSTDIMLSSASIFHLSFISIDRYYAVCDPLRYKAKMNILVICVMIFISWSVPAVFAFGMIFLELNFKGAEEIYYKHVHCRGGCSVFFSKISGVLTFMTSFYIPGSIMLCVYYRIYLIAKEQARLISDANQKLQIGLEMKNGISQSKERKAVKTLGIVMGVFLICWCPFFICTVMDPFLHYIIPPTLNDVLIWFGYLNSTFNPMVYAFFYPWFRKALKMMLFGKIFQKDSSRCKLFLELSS
Briefly: Screen of 89 aminergic compounds at 10 µM, cAMP accumulation in HEK293T cells.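 For all read-outs here: HEK293T cells co-transfected with hTA1 and GloSensor cAMP reporter, cAMP accumulation detected by luminescence.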 It is filed as cell-based. Conditions: for increase of signal over DMSO-treated controls (hTA1 activation): 10 µM of compound, HEK293T, threshold log2-fold change of 2; for Luminescence for Screening Data: quadruplicate values, screen at 10 µM. On the technique in general: cAMP levels reflect the balance of adenylyl cyclase and phosphodiesterase activity.

For test [2], the target named is T1, hTA1. Briefly: GloSensor cAMP accumulation assay, concentration response, wild-type hTA1 in transfected HEK293T cells.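 Note: luminescence read after 30 min compound exposure at room temperature in cells preloaded with D-Luciferin, reflecting Gs-driven cAMP rise, efficacy scaled to the maximal β-PEA response.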 It is filed as cell-based. Conditions: log[Compound], replicate wells.

Experimental findings from paper PMC10762035, “Molecular basis of human trace amine-associated receptor 1 activation” (Nature Communications, 2024) are described below.

Values joined by “and” are separate entries in the source; they are usually repeats but may differ in a detail not shown here. Identical values can stand only once. Where only a bound is given, the exact number is not on record here.

As for `CCN(CC)C(=O)[C@@H]1C=C2c3cccc4[nH]cc(c34)C[C@H]2N(C)C1` [LSD], the “increase of signal over DMSO-treated controls (hTA1 activation)” value (shortened to “increase of signal”) on hTA1 [1] is reported as ≥ 4 fold. Besides, the “Normalized Luminescence Counts for WT hTA1” value is 23.2463 and 21.0198 and 23.6719 and 20.4035 and 14.0827 and 19.0998 on hTA1 [2] (M = -5); 8.12 and 8.709 and 6.057 and 5.51 and 6.34 and 6.182 at hTA1 [2] (M = -5.522); 3.405 and 1.833 (2×) and 1.7572 and 2.35 and 2.5473 at hTA1 [2] (M = -6); 0.7855 and 1.3421 and 1.375 and 0.5325 and 0.8881 and 0.6116 at hTA1 [2] (M = -6.522); -0.0003118 and 0.7527 and 0.5563 and 0.256 and -0.2575 and 0.2165 at hTA1 [2] (M = -7); -0.164 and -0.426 and 0.2944 and -0.4946 (2×) and -0.09953 at hTA1 [2] (M = -7.522). Also, the “Normalized Luminescence Counts for WT hTA1” value at hTA1 [2] (M = -8) was 0.7855 and 0.6873 and 0.03243 and 0.1375 and 0.6116 and -0.2575; at hTA1 [2] (M = -8.522), -0.2295 and 0.4253 and 0.09791 and 0.05849 and -0.2971 and 0.6511; on hTA1 [2] (M = -9), -0.8516 and -0.1968 and 0.1634 and 0.493 and -0.09953 and 0.2955; at hTA1 [2] (M = -9.522) it was -0.295 and -0.3605 and -0.426 and -0.1785 and -0.3761 and -0.06003; on hTA1 [2] (M = -10), -0.09854 and 0.2289 and -0.3605 and -0.4946 and -0.5736 and -0.6131; at hTA1 [2] (M = -10.522), -0.4587 (2×) and -0.1313 and -0.218 and -1.245 and 0.01898. Besides, the “Normalized Luminescence Counts for WT hTA1” value on hTA1 [2] (M = -11) was -0.09854 and 0.3598 and 0.6873 and -0.1785 and -0.09953 and 1.007; on hTA1 [2] (M = -11.522), 0.2289 and 1.08 and 0.3926 and 1.086 and 1.046 and -0.2971; at hTA1 [2] (M = -12), -0.4587 and 0.1634 and 0.4253 and 0.7696 and -0.2575 and 1.836; on hTA1 [2] (M = -12.522) it was 1.735 and 0.5236 and 0.2616 and 0.05849 and -0.218 and 0.3745.
As for `C[C@H](N)Cn1ccc2cc(F)c(Cl)cc21` [Ro600175], the “increase of signal” value on hTA1 [1] was ≥ 4 fold. Besides, the “Normalized Luminescence Counts for WT hTA1” value on hTA1 [2] (M = -5) was 52.641 and 46.7523 and 44.37 and 49.7206 and 44.9424 and 49.1048; on hTA1 [2] (M = -5.522), 20.1192 and 21.0025 and 20.1995 and 33.6184 and 30.3798 and 33.3903; at hTA1 [2] (M = -6) it was 10.3493 and 9.439 and 10.7776 and 14.1863 and 14.9846 and 14.3574; on hTA1 [2] (M = -6.522) it was 3.39 and 1.971 and 3.3096 and 6.785 and 7.013 and 6.8993; on hTA1 [2] (M = -7), 0.6865 and 0.9274 and 0.7668 and 2.03 and 1.973 and 1.7904; at hTA1 [2] (M = -7.522), -0.2504 and 0.2582 and -0.2236 and 0.6842 and 0.6044 and 0.3991. The “Normalized Luminescence Counts for WT hTA1” value was 0.5258 and 0.5794 and 1.275 and 0.4333 and 0.3763 and 0.3649 at hTA1 [2] (M = -8); 0.4991 and -0.1166 and 0.392 and 0.03421 and 0.3649 and 0.2509 on hTA1 [2] (M = -8.522); 0.01728 and 0.7935 and -0.1969 and 0.1026 and 0.3877 and 0.2737 on hTA1 [2] (M = -9); 0.07081 and -0.08979 and -0.1166 and -0.1482 and -0.114 and 0.07983 at hTA1 [2] (M = -9.522); 0.1243 and -0.009489 and 0.4188 and -0.1825 and -0.0114 and -0.03421 on hTA1 [2] (M = -10); -0.06302 and -0.3842 and 0.1779 and -0.2053 and 0 and -0.05702 on hTA1 [2] (M = -10.522). For the same molecule, the “Normalized Luminescence Counts for WT hTA1” value is 0.6329 and 0.3117 and 0.7132 and -0.06842 and 0.4447 and 0.2509 on hTA1 [2] (M = -11); 0.4188 and 0.7668 and 0.8738 and 0.4676 and 0.2509 and 0.707 on hTA1 [2] (M = -11.522); 0.5258 and 0.5526 and 1.302 and -0.114 and 0.2737 and 0.1368 at hTA1 [2] (M = -12); 0.2046 and 0.1779 and 0.2849 and 0.2623 and 0.4219 and 0.2395 at hTA1 [2] (M = -12.522).
For the molecule `O=C1NCCN1CCN1CCC(c2cn(-c3ccc(F)cc3)c3ccc(Cl)cc23)CC1` [Sertindole], the “Luminescence for Screening Data” value at hTA1 [1] was 7.6 and 9 and 6.3.
In the case of `O=C(CCCN1CCC2(CC1)C(=O)NCN2c1ccccc1)c1ccc(F)cc1` [Spiperone], the “Luminescence for Screening Data” value on hTA1 [1] is 6.2 and 8.3 and 7.1 and 6.7.
The same measure, in the same setting: to `CNS(=O)(=O)Cc1ccc2[nH]cc(CCN(C)C)c2c1` [Sumatriptan] belongs 6.2 and 7.3; to `COc1cc2c(cc1OC)C1CC(=O)C(CC(C)C)CN1CC2` (stereo not shown) [Tetrabenazine], 6.8 and 8.5 and 6.4 and 8.8; to `C/C=C(/C)C(=O)O[C@H]1C(C)=C2[C@H]([C@@H]1OC(=O)CCCCCCC)[C@@](C)(OC(C)=O)C[C@H](OC(=O)CCC)[C@@]1(O)[C@H]2OC(=O)[C@@]1(C)O` [Thapsigargin], 6.1 and 7.3 and 5.8 and 7.7.
Turning to `COc1ccc(C(CN(C)C)C2(O)CCCCC2)cc1` (stereo not shown) [Venlafaxine], the “Luminescence for Screening Data” value at hTA1 [1] is 6.7 and 7 and 6 and 6.5.
As to `O=C1Nc2cc(Cl)c(Cl)cc2N2CCNCC12` (stereo not shown) [WAY161503], the “increase of signal” value on hTA1 [1] was ≥ 4 fold. Further, the “Normalized Luminescence Counts for WT hTA1” value on hTA1 [2] (M = -5) was 13.2601 and 18.8261 and 16.7307 and 26.6058 and 24.591 and 22.5763; at hTA1 [2] (M = -5.522), 7.105 and 8.152 and 8.742 and 7.88 and 6.893 and 7.327; on hTA1 [2] (M = -6), 0.3926 and 0.6218 and 0.4581 and 2.389 and 1.639 and 1.7967; on hTA1 [2] (M = -6.522), -0.0003118 and -0.03305 and -0.426 and 0.5325 and 0.2955 and 0.6511; on hTA1 [2] (M = -7), -0.426 and -1.114 and -0.7861 and -0.2575 (2×) and -0.3366; on hTA1 [2] (M = -7.522) it was -0.8516 and -1.277 and -0.6879 and -0.3366 and -0.4946 and -1.166. Moreover, the “Normalized Luminescence Counts for WT hTA1” value at hTA1 [2] (M = -8) was -0.09854 and -0.3605 (2×) and 0.09799 and 0.6511 and -0.3761; on hTA1 [2] (M = -8.522) it was -0.3605 and -0.7206 and -0.3932 and 1.165 and 1.046 and 0.6116; at hTA1 [2] (M = -9), -1.048 and -0.2622 and -0.8516 and -0.06003 and 0.2165 and 0.414; on hTA1 [2] (M = -9.522) it was -1.277 and -0.8516 and -0.7861 and 0.6116 and 0.01898 and -0.6526; at hTA1 [2] (M = -10) it was -0.7206 and -0.7534 and -0.3605 and -0.8106 and -0.1785 and -1.087; at hTA1 [2] (M = -10.522), -0.5897 and -0.09854 and -0.6224 and 0.01898 and -0.3761 and -0.7316. In addition, the “Normalized Luminescence Counts for WT hTA1” value on hTA1 [2] (M = -11) is 0.09791 and 0.03243 and -0.6224 and -0.2971 and 0.5325 and 0.3745; at hTA1 [2] (M = -11.522), -0.0003118 and -0.5242 and 0.06517 and -0.09953 and -0.4156 and 0.177; on hTA1 [2] (M = -12), -0.3277 and -0.295 and -0.8189 and 0.4535 and -0.2971 and -0.4156; on hTA1 [2] (M = -12.522), -0.3932 and -0.5897 (2×) and 0.4535 and -0.4551 and 0.09799.
As for `O=C1Cc2cc(CCN3CCN(c4nsc5ccccc45)CC3)c(Cl)cc2N1` [Ziprasidone], the “Luminescence for Screening Data” value at hTA1 [1] is 5.8 and 4.8 and 5.4.
Take `CNC[C@H](O)c1ccc(O)c(O)c1` [epinephrine]: at hTA1 [1], the “increase of signal” value is recorded as ≥ 4 fold. In addition, the “Normalized Luminescence Counts for WT hTA1” value at hTA1 [2] (M = -5) is -0.5341 and -0.7316 and 0.493; on hTA1 [2] (M = -5.522) it was -0.1785 and 2.231 and -0.218; at hTA1 [2] (M = -6) it was 0.4535 and -0.139; at hTA1 [2] (M = -6.522), 0.493 and 1.046 and -0.7316; at hTA1 [2] (M = -7), -1.759 and -1.996 and -0.9686; on hTA1 [2] (M = -7.522), -2.549 and -2.2723 and -2.114. Also, the “Normalized Luminescence Counts for WT hTA1” value on hTA1 [2] (M = -8) is -2.035 and -0.8106 and -2.154; at hTA1 [2] (M = -8.522), -1.917 and -1.68 and -2.233; on hTA1 [2] (M = -9), -2.391 and -2.075 and -2.628; on hTA1 [2] (M = -9.522), -2.588 and -2.667 and -2.549; at hTA1 [2] (M = -10) it was -2.865 and -2.47 and -2.391; on hTA1 [2] (M = -10.522), -2.628 and -2.193 and -2.549. Moreover, the “Normalized Luminescence Counts for WT hTA1” value at hTA1 [2] (M = -11) was -2.3118 and -2.193 and -2.114; on hTA1 [2] (M = -11.522), -2.391 and -1.4427 and -1.956; at hTA1 [2] (M = -12) it was -2.233 and -1.4427 and -1.917; on hTA1 [2] (M = -12.522) it was -2.075 and -2.114 and -1.798.
For the molecule `NCCc1c[nH]cn1` [histamine], on hTA1 [1], the “increase of signal” value is listed as ≥ 4 fold; the “Luminescence for Screening Data” value was 13.5 and 15.3 and 16.1 and 15.1.
With `O=c1[nH]c2ccccc2n1C1CCN(CCCC(c2ccc(F)cc2)c2ccc(F)cc2)CC1` [pimozide], the “Luminescence for Screening Data” value on hTA1 [1] was 4.4 and 4.3 and 5.
Turning to `CN(C)CCOC1=Cc2ccccc2Sc2ccc(Cl)cc21` [zotepine], the “Luminescence for Screening Data” value at hTA1 [1] is 5.4 and 6.9 and 6.1 and 5.8.
